From patent US20210267239A1, “Process for Sanitizing and Preserving Foodstuffs and Beverages” (LANXESS Deutschland GmbH, priority 2018, published 2021)

Tests used:
Assay type in all cases: cell-based
Candida albicans = test: MIC determination in RPMI-1640 growth medium (CLSI M27-A3); conditions: 168 h, growth medium RPMI-1640, seeding 1000 cfu/ml, after one week, read-out: MIC (mg/l) after one week
Method: (§1) After one week, a proportion of the growth medium was tested for the presence of microorganisms and these tests were used to determine the MIC (minimum inhibitory concentration). Individual test substances: natamycin, mycosamine Test microbe: Candida albicans Substrate: growth medium Microbial seeding per ml of substrate: 1000 cfu/ml Synergism was ascertained according to the method described in Kull, F. C. et al.; Mixtures of quaternary ammonium compounds and long-chain fatty acids as antifungal agents. Applied Microbiology, 9, 538-541, 1961. The following relationships apply: QA/Qa+QB/Qb=SI Qa=concentration of substance A which is the MIC Qb=concentration of substance B which is the MIC QA=concentration of substance A in the concentration of A/B at which microbial growth is suppressed QB=concentration of substance B in the concentration of A/B at which microbial growth is suppressed SI=synergistic index […]

Candida glabrata = test: as above; conditions: Nakaseomyces glabratus, 168 h, growth medium RPMI-1640, seeding 1000 cfu/ml, after one week, read-out: MIC (mg/l) after one week
Method: as §1, with “the” for “the growth”, “glabrata” for “albicans”

Candida krusei = test: as above; conditions: Pichia kudriavzevii, 168 h, growth medium RPMI-1640, seeding 1000 cfu/ml, after one week, read-out: MIC (mg/l) after one week
Method: as §1, with “the” for “the growth”, “krusei” for “albicans”

[1] = tested on: mixture of Saccharomyces cerevisiae, Zygosaccharomyces bailii, Penicillium carneum and Trichoderma virens; test: MIC determination in contaminated iced tea, non-carbonated; conditions: 168 h, mixed test microbes, 250 cfu/ml each, after one week, read-out: MIC (mg/l) after one week
Method: as §1, with “the” for “the growth”, “mixture of Saccharomyces cerevisiae, Zygosaccharomyces bailii, Penicillium carneum and Trichoderma virens” for “Candida albicans”, “iced tea, non-carbonated” for “growth medium”, “250” for “1000”, “cfu/ml each of the test microbes listed above” for “cfu/ml”

SMILES: C[C@@H](O)[C@@H](O)[C@H](N)[C@H](O)C=O [Mycosamine, 3-amino-3,6-dideoxymannose]
- MIC (Candida albicans): 32 mg/L
- MIC (Candida glabrata): 0.5 mg/L
- MIC (Candida krusei): 2 mg/L
- MIC [1]: 0.75 mg/L

SMILES: C[C@@H]1C/C=C/C=C/C=C/C=C/[C@H](O[C@@H]2O[C@H](C)[C@@H](O)[C@H](N)[C@@H]2O)C[C@@H]2O[C@](O)(C[C@@H](O)C[C@H]3O[C@@H]3/C=C/C(=O)O1)C[C@H](O)[C@H]2C(=O)O [Natamycin, (8E,14E,16E,18E,20E)-(1R,3S,5R,7R,12R,22R,24S,25R,26S)-22-(3-amino-3,6-dideoxy-25-D-mannopyranosyloxy)-1,3,26-trihydroxy-12-methyl-10-oxo-6,11,28-trioxatricyclo[22.3.1.05,7]octacosa-8,14,16,18,20-pentaene-25-carboxylic acid]
- MIC (Candida albicans): 1 mg/L
- MIC (Candida glabrata): 1 mg/L
- MIC (Candida krusei): 2 mg/L
- MIC [1]: 4 mg/L
